The values that follow come from patent USRE47689E1, “Compounds for treating spinal muscular atrophy” (PTC Therapeutics, Inc., priority 2011, dated 2019).

Structures are written as SMILES. Where two headings read alike, the source gives them in different places. Bounds are passed on as bounds.

For data set [1], the system named is SMN2 minigene (full length SMN2 minigene mRNA containing SMN2 exon 7). The experiment in a line: SMN2 minigene mRNA splicing RT-qPCR assay in cultured cells. The note with it: Homo sapiens, HEK293-H, read-out: EC1.5x for production of full length SMN2 mRNA. Format: cell-based, human. Summed up: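 Full-length SMN2 minigene mRNA (exon 7 included), minigene-specific and not endogenous SMN, quantified by RT-qPCR multiplexed with GAPDH in stably transfected HEK293H cells after 24 h compound exposure at 37° C. Abundance from efficiency-corrected Ct, normalized to GAPDH and vehicle; EC1.5x reported as star bins.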

For another data set, the system named is Smn protein. Put plainly: Smn protein assay in cultured cells (SMN HTRF). The data set is classed as cell-based, human. The following applies: for EC1.5x (concentration giving 1.5-fold Smn protein increase): read-out: EC1.5x for Smn protein expression. The gist of the method: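 Smn in SMA fibroblast lysates, measured by anti-SMN HTRF after 48 h compound exposure; EC1.5x from fold change over vehicle.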

The mark [2] stands for this setting: HEK293H cells stably transfected with SMN2-A minigene, 24 hours, 7-point concentration curve, 1.5-fold relative to vehicle-treated cells.
Setting [3] is: SMA Type 1 patient fibroblast cells (GM03813), 48 hours, 7-point concentration curve, SMN HTRF, concentration producing 1.5 times Smn protein vs DMSO vehicle control.
Where [4] appears, read: SMA patient fibroblast cells, 48 hours, 7-point concentration data, fold increase relative to vehicle control (SMN HTRF).

Turning to `Cc1cn2cc(-c3cc4ccc(N5C[C@@H]6CCCN(CCO)[C@@H]6C5)cc4oc3=O)nc2c(C)n1` [Compound 796, 3-(6,8-dimethylimidazo[1,2-a]pyrazin-2-yl)-7-[(4aS,7aS)-1-(2-hydroxyethyl)octahydro-6H-pyrrolo[3,4-b]pyridin-6-yl]-2H-chromen-2-one], the melting point – broadly, the temperature of the solid-liquid transition – was 200 to 210 °C. The EC (1.5-fold) in data set [1] (setting [2]) is less than 0.1 µM. Moreover, the EC1.5x (concentration giving 1.5-fold Smn protein increase) in the data set on Smn protein (setting [3]) fell in the range of 300 to 1000 nM. Also, the “maximum fold (Fold) increase of Smn protein” value (shortened to “maximum fold (Fold) increase”) with Smn protein (setting [4]) was “**** (fold increase between >1.5 and ≤1.65)”.

`Cc1cn2cc(-c3cc4ccc(C5CCN(C(C)C)CC5)cc4oc3=O)nc2c(C)n1` [Cpd 773, 3-(6,8-dimethylimidazo[1,2-a]pyrazin-2-yl)-7-[1-(propan-2-yl)piperidin-4-yl]-2H-chromen-2-one] gave a melting point of 206 to 211 °C. In data set [1] (setting [2]), the EC (1.5-fold) was less than 0.1 µM. The EC1.5x (concentration giving 1.5-fold Smn protein increase) with Smn protein (setting [3]) is less than 300 nM. Further, the “maximum fold (Fold) increase” value in the data set with Smn protein (setting [4]) is “**** (fold increase between >1.5 and ≤1.65)”.

`Cc1cn2cc(-c3cc4ccc(CCCNC(C)C)cc4oc3=O)nc2c(C)n1` [Compound 858, 3-(6,8-dimethylimidazo[1,2-a]pyrazin-2-yl)-7-[3-(propan-2-ylamino)propyl]-2H-chromen-2-one] had a melting point of 184 to 187 °C. The EC (1.5-fold) in data set [1] (setting [2]) was less than 0.1 µM. For the same compound, in the data set on Smn protein (setting [3]), the EC1.5x (concentration giving 1.5-fold Smn protein increase) was less than 300 nM. Moreover, the “maximum fold (Fold) increase” value in the data set on Smn protein (setting [4]) was “**** (fold increase between >1.5 and ≤1.65)”.

The compound `Cc1cn2cc(-c3cc4ccc(N5CCN(C(C)C)CC5)cc4oc3=O)nc2cn1` [Compound 833, 3-(6-methylimidazo[1,2-a]pyrazin-2-yl)-7-[4-(propan-2-yl)piperazin-1-yl]-2H-chromen-2-one] displayed a melting point of 275 to 280 °C. In data set [1] (setting [2]), the EC (1.5-fold) was less than 0.1 µM. Moreover, the EC1.5x (concentration giving 1.5-fold Smn protein increase) with Smn protein (setting [3]) is less than 300 nM. In addition, in the data set with Smn protein (setting [4]), the “maximum fold (Fold) increase” value was “***** (fold increase >1.65)”.

With `Cc1cn2cc(-c3cc4ccc(C5=CCN(CCO)CC5)cc4oc3=O)nc2c(C)n1` [Compound 801, 3-(6,8-dimethylimidazo[1,2-a]pyrazin-2-yl)-7-[1-(2-hydroxyethyl)-1,2,3,6-tetrahydropyridin-4-yl]-2H-chromen-2-one], the melting point fell in the range of 172 to 214 °C. In addition, the EC (1.5-fold) in data set [1] (24 h) was less than 0.1 µM. Moreover, in the data set on Smn protein, the “maximum fold (Fold) increase” value was “**** (key: *: maximum fold increase of ≤1.2; **: fold increase between >1.2 and ≤1.35; ***: fold increase between >1.35 and ≤1.5; ****: fold increase between >1.5 and ≤1.65; *****: fold increase >1.65)”; the EC1.5x (concentration giving 1.5-fold Smn protein increase) is less than 300 nM.

Compound `Cc1cccc2nc(-c3cc4ccc(N5CCN(C)CC5)cc4oc3=O)cn12` [Compound 135, 3-(5-methylimidazo[1,2-a]pyridin-2-yl)-7-(4-methylpiperazin-1-yl)-2H-chromen-2-one] came in with a melting point of 263 to 272 °C. Besides, the EC (1.5-fold) in data set [1] (setting [2]) lay in the range of 0.3 to 1 µM. In addition, in the data set with Smn protein (setting [4]), the “maximum fold (Fold) increase” value is “** (fold increase between >1.2 and ≤1.35)”.

`CN1CCN(c2cc(F)c3cc(-c4cn5ccccc5n4)c(=O)oc3c2)CC1` [Compound 422, 5-fluoro-3-(imidazo[1,2-a]pyridin-2-yl)-7-(4-methylpiperazin-1-yl)-2H-chromen-2-one]: the melting point lay within 263 to 269 °C. The EC (1.5-fold) in data set [1] (setting [2]) is 0.3 to 1 µM. Also, the “maximum fold (Fold) increase” value with Smn protein (setting [4]) was “** (fold increase between >1.2 and ≤1.35)”.

`Cc1cn2cc(-c3cc4ccc(N5CCN(CCCO)[C@@H](C)C5)cc4oc3=O)nc2c(C)n1` [Compound 907, 3-(6,8-dimethylimidazo[1,2-a]pyrazin-2-yl)-7-[(3S)-4-(3-hydroxypropyl)-3-methylpiperazin-1-yl]-2H-chromen-2-one] displayed a melting point of 187 to 190 °C. Further, in data set [1] (setting [2]), the EC (1.5-fold) is less than 0.1 µM. The EC1.5x (concentration giving 1.5-fold Smn protein increase) in the data set on Smn protein (setting [3]) is less than 300 nM. Besides, in the data set on Smn protein (setting [4]), the “maximum fold (Fold) increase” value is “**** (fold increase between >1.5 and ≤1.65)”.

With `Cc1cn2cc(-c3cc4ccc(N[C@@H]5C[C@H]6CCC[C@@H](C5)N6C)cc4oc3=O)nc2c(C)n1` [Compound 702, 3-(6,8-dimethylimidazo[1,2-a]pyrazin-2-yl)-7-{[(3-exo)-9-methyl-9-azabicyclo[3.3.1]non-3-yl]amino}-2H-chromen-2-one], the melting point lay within 279 to 287 °C. Besides, the EC (1.5-fold) in data set [1] (24 h) lay within 1 to 3 µM. In addition, the “maximum fold (Fold) increase” value with Smn protein (setting [4]) is given as “* (maximum fold increase of ≤1.2)”.

Compound `CCc1ccn2cc(-c3cc4ccc(N5C[C@@H](C)N[C@@H](C)C5)cc4oc3=O)nc2c1` [Compound 289, 7-[(3R,5S)-3,5-dimethylpiperazin-1-yl]-3-(7-ethylimidazo[1,2-a]pyridin-2-yl)-2H-chromen-2-one] had a melting point of 183 to 188 °C. Besides, the EC (1.5-fold) in data set [1] (setting [2]) was in the range of 0.3 to 1 µM. In the data set on Smn protein (setting [4]), the “maximum fold (Fold) increase” value is “* (maximum fold increase of ≤1.2)”.

`Cc1cn2cc(-c3cc4ccc(OCCNC(C)(C)CO)cc4oc3=O)nc2c(C)n1` [Compound 955, 3-(6,8-dimethylimidazo[1,2-a]pyrazin-2-yl)-7-{2-[(1-hydroxy-2-methylpropan-2-yl)amino]ethoxy}-2H-chromen-2-one] came in with a melting point of 187 to 191 °C. Further, the EC (1.5-fold) in data set [1] (setting [2]) lay in the range of 0.1 to 0.3 µM. The “maximum fold (Fold) increase” value in the data set on Smn protein (setting [4]) is “*** (fold increase between >1.35 and ≤1.5)”.

Turning to `CCN1CCC(c2ccc3cc(-c4cn5cc(C)ncc5n4)c(=O)oc3c2)CC1` [Compound 844, 7-(1-ethylpiperidin-4-yl)-3-(6-methylimidazo[1,2-a]pyrazin-2-yl)-2H-chromen-2-one], the melting point is 249 to 259 °C. Also, the EC (1.5-fold) in data set [1] (setting [2]) was less than 0.1 µM. Further, in the data set with Smn protein (setting [3]), the EC1.5x (concentration giving 1.5-fold Smn protein increase) is 300 to 1000 nM. For the same compound, in the data set on Smn protein (setting [4]), the “maximum fold (Fold) increase” value was “**** (fold increase between >1.5 and ≤1.65)”.

Consider `Cc1nc(Cl)cn2cc(-c3cc4ccc(N5CCN[C@H](C)C5)cc4oc3=O)nc12` [Compound 699, 3-(6-chloro-8-methylimidazo[1,2-a]pyrazin-2-yl)-7-[(3R)-3-methylpiperazin-1-yl]-2H-chromen-2-one], for which the melting point was in the range of 265 to 268 °C. In addition, the EC (1.5-fold) in data set [1] (setting [2]) was in the range of 0.1 to 0.3 µM. Besides, the EC1.5x (concentration giving 1.5-fold Smn protein increase) in the data set with Smn protein (setting [3]) was in the range of 300 to 1000 nM. For the same compound, the “maximum fold (Fold) increase” value with Smn protein (setting [4]) is “***** (fold increase >1.65)”.

In turn, `Cc1cn2cc(-c3cc4ccc(OCCNC(C)C)cc4oc3=O)nc2c(C)n1` [Compound 877, 3-(6,8-dimethylimidazo[1,2-a]pyrazin-2-yl)-7-[2-(propan-2-ylamino)ethoxy]-2H-chromen-2-one] gave a melting point of 202 to 207 °C. In addition, in data set [1] (setting [2]), the EC (1.5-fold) was less than 0.1 µM. Further, in the data set with Smn protein (setting [3]), the EC1.5x (concentration giving 1.5-fold Smn protein increase) lay within 300 to 1000 nM. Moreover, in the data set with Smn protein (setting [4]), the “maximum fold (Fold) increase” value is “*** (fold increase between >1.35 and ≤1.5)”.

With `CCN(CC)CCc1ccc2cc(-c3cn4cc(C)nc(C)c4n3)c(=O)oc2c1` [Compound 968, 7-[2-(diethylamino)ethyl]-3-(6,8-dimethylimidazo[1,2-a]pyrazin-2-yl)-2H-chromen-2-one], the melting point lay in the range of 190 to 193 °C. In data set [1] (setting [2]), the EC (1.5-fold) is less than 0.1 µM. Further, the EC1.5x (concentration giving 1.5-fold Smn protein increase) in the data set with Smn protein (setting [3]) is less than 300 nM. Further, in the data set with Smn protein (setting [4]), the “maximum fold (Fold) increase” value is “***** (fold increase >1.65)”.
